Experimental data taken from patent US11013817B2, “Nanoparticles for drug delivery to treat bone disease” (The Cleveland Clinic Foundation, priority 2016, dated 2021).

Assay: Solid state solubility of PTX and TXT in polymers (phase separation in cast films)
Assay type: physicochemical
Parameters: key: +ve: Phase separation; −ve: No phase separation
From the text: For this example, polymer and drug solutions in chloroform at different % of drug to polymer were casted into films on glass slides. Following solvent evaporation of chloroform in a chemical hood overnight, the casted films were observed under a light microscope. Phase separation was clearly evident from crystallization of the drug in the polymer film whereas the films were homogeneous when there was no phase separation.

In the case of `CC(=O)O[C@H]1C(=O)[C@@]2(C)[C@H]([C@H](OC(=O)c3ccccc3)[C@]3(O)C[C@H](OC(=O)[C@H](O)[C@@H](NC(=O)c4ccccc4)c4ccccc4)C(C)=C1C3(C)C)[C@]1(OC(C)=O)CO[C@@H]1C[C@@H]2O` [Paclitaxel, 5ß,20-Epoxy-1,2a,4,7ß,10ß,13a-hexahydroxytax-11-en-9-one 4,10-diacetate 2-benzoate 13-ester with (2R,3S)-N-benzoyl-3-phenylisoserine], the “Phase Separation” value (drug 1% w/w, polymer inherent viscosity 0.16 dL/g, Lactide/Glycolide 50/50) is reported as “+”, the “Phase Separation” value (drug 1% w/w, polymer inherent viscosity 0.18 dL/g, Lactide/Glycolide 75/25) is reported as “+” and the “Phase Separation” value (drug 1% w/w, polymer inherent viscosity 0.26-0.54 dL/g, Lactide/Glycolide 50/50, Ester Terminated) is reported as “−”. For the same compound, the “Phase Separation” value (drug 1% w/w, polymer inherent viscosity 0.39 dL/g, Lactide/Glycolide 50/50) was “+”, the “Phase Separation” value (drug 1% w/w, polymer inherent viscosity 0.55-0.75 dL/g, Lactide/Glycolide 50/50, Carbohydrate end Group) was “−” and the “Phase Separation” value (drug 1% w/w, polymer inherent viscosity 0.63 dL/g, Lactide/Glycolide 85/15) was “+”. For the same compound, the “Phase Separation” value (drug 1% w/w, polymer inherent viscosity 0.64 dL/g, Lactide/Glycolide 65/35) was “+”, the “Phase Separation” value (drug 1% w/w, polymer inherent viscosity 0.64 dL/g, Lactide/Glycolide 75/25) was “+” and the “Phase Separation” value (drug 1% w/w, polymer inherent viscosity 0.67 dL/g, Lactide/Glycolide 65/35) was “+”. The “Phase Separation” value (drug 1% w/w, polymer inherent viscosity 0.69 dL/g, Lactide/Glycolide 50/50 (first of two such lines, r12)) was “+”, the “Phase Separation” value (drug 1% w/w, polymer inherent viscosity 0.69 dL/g, Lactide/Glycolide 50/50 (second of two such lines, r13)) was “+” and the “Phase Separation” value (drug 1% w/w, polymer inherent viscosity 0.76-0.94 dL/g, Lactide/Glycolide 50/50) was “+”. The “Phase Separation” value (drug 1% w/w, polymer inherent viscosity 0.87 dL/g, Lactide/Glycolide 50/50) was “+”, the “Phase Separation” value (drug 1% w/w, polymer inherent viscosity 0.95-1.20 dL/g, Lactide/Glycolide 50/50) was “−” and the “Phase Separation” value (drug 1% w/w, polymer inherent viscosity 1.15 dL/g, Lactide/Glycolide 50/50) was “+”. For the same compound, the “Phase Separation” value (drug 1% w/w, polymer inherent viscosity 1.24 dL/g, Lactide/Glycolide 50/50) was “+”, the “Phase Separation” value (drug 5% w/w, polymer inherent viscosity 0.16 dL/g, Lactide/Glycolide 50/50) was “+” and the “Phase Separation” value (drug 5% w/w, polymer inherent viscosity 0.18 dL/g, Lactide/Glycolide 75/25) was “+”. The “Phase Separation” value (drug 5% w/w, polymer inherent viscosity 0.26-0.54 dL/g, Lactide/Glycolide 50/50, Ester Terminated) was “−”, the “Phase Separation” value (drug 5% w/w, polymer inherent viscosity 0.39 dL/g, Lactide/Glycolide 50/50) was “+” and the “Phase Separation” value (drug 5% w/w, polymer inherent viscosity 0.55-0.75 dL/g, Lactide/Glycolide 50/50, Carbohydrate end Group) was “−”. For the same compound, the “Phase Separation” value (drug 5% w/w, polymer inherent viscosity 0.63 dL/g, Lactide/Glycolide 85/15) was “+”, the “Phase Separation” value (drug 5% w/w, polymer inherent viscosity 0.64 dL/g, Lactide/Glycolide 65/35) was “+” and the “Phase Separation” value (drug 5% w/w, polymer inherent viscosity 0.64 dL/g, Lactide/Glycolide 75/25) was “+”. The “Phase Separation” value (drug 5% w/w, polymer inherent viscosity 0.67 dL/g, Lactide/Glycolide 65/35) was “+”, the “Phase Separation” value (drug 5% w/w, polymer inherent viscosity 0.69 dL/g, Lactide/Glycolide 50/50 (first of two such lines, r12)) was “+” and the “Phase Separation” value (drug 5% w/w, polymer inherent viscosity 0.69 dL/g, Lactide/Glycolide 50/50 (second of two such lines, r13)) was “+”. For the same compound, the “Phase Separation” value (drug 5% w/w, polymer inherent viscosity 0.76-0.94 dL/g, Lactide/Glycolide 50/50) was “+”, the “Phase Separation” value (drug 5% w/w, polymer inherent viscosity 0.87 dL/g, Lactide/Glycolide 50/50) was “+” and the “Phase Separation” value (drug 5% w/w, polymer inherent viscosity 0.95-1.20 dL/g, Lactide/Glycolide 50/50) was “−”. For the same compound, the “Phase Separation” value (drug 5% w/w, polymer inherent viscosity 1.15 dL/g, Lactide/Glycolide 50/50) was “+”, the “Phase Separation” value (drug 5% w/w, polymer inherent viscosity 1.24 dL/g, Lactide/Glycolide 50/50) was “+” and the “Phase Separation” value (drug 10% w/w, polymer inherent viscosity 0.16 dL/g, Lactide/Glycolide 50/50) was “+”. The “Phase Separation” value (drug 10% w/w, polymer inherent viscosity 0.18 dL/g, Lactide/Glycolide 75/25) was “+”, the “Phase Separation” value (drug 10% w/w, polymer inherent viscosity 0.26-0.54 dL/g, Lactide/Glycolide 50/50, Ester Terminated) was “−” and the “Phase Separation” value (drug 10% w/w, polymer inherent viscosity 0.39 dL/g, Lactide/Glycolide 50/50) was “+”. For the same compound, the “Phase Separation” value (drug 10% w/w, polymer inherent viscosity 0.55-0.75 dL/g, Lactide/Glycolide 50/50, Carbohydrate end Group) was “−”, the “Phase Separation” value (drug 10% w/w, polymer inherent viscosity 0.63 dL/g, Lactide/Glycolide 85/15) was “+” and the “Phase Separation” value (drug 10% w/w, polymer inherent viscosity 0.64 dL/g, Lactide/Glycolide 65/35) was “+”. The “Phase Separation” value (drug 10% w/w, polymer inherent viscosity 0.64 dL/g, Lactide/Glycolide 75/25) was “+”, the “Phase Separation” value (drug 10% w/w, polymer inherent viscosity 0.67 dL/g, Lactide/Glycolide 65/35) was “+” and the “Phase Separation” value (drug 10% w/w, polymer inherent viscosity 0.69 dL/g, Lactide/Glycolide 50/50 (first of two such lines, r12)) was “+”. The “Phase Separation” value (drug 10% w/w, polymer inherent viscosity 0.69 dL/g, Lactide/Glycolide 50/50 (second of two such lines, r13)) was “+”, the “Phase Separation” value (drug 10% w/w, polymer inherent viscosity 0.76-0.94 dL/g, Lactide/Glycolide 50/50) was “+” and the “Phase Separation” value (drug 10% w/w, polymer inherent viscosity 0.87 dL/g, Lactide/Glycolide 50/50) was “+”. The “Phase Separation” value (drug 10% w/w, polymer inherent viscosity 0.95-1.20 dL/g, Lactide/Glycolide 50/50) was “−”, the “Phase Separation” value (drug 10% w/w, polymer inherent viscosity 1.15 dL/g, Lactide/Glycolide 50/50) was “+” and the “Phase Separation” value (drug 10% w/w, polymer inherent viscosity 1.24 dL/g, Lactide/Glycolide 50/50) was “+”. The “Phase Separation” value (drug 15% w/w, polymer inherent viscosity 0.16 dL/g, Lactide/Glycolide 50/50) was “+”, the “Phase Separation” value (drug 15% w/w, polymer inherent viscosity 0.18 dL/g, Lactide/Glycolide 75/25) was “+” and the “Phase Separation” value (drug 15% w/w, polymer inherent viscosity 0.26-0.54 dL/g, Lactide/Glycolide 50/50, Ester Terminated) was “−”. For the same compound, the “Phase Separation” value (drug 15% w/w, polymer inherent viscosity 0.39 dL/g, Lactide/Glycolide 50/50) was “+”, the “Phase Separation” value (drug 15% w/w, polymer inherent viscosity 0.55-0.75 dL/g, Lactide/Glycolide 50/50, Carbohydrate end Group) was “−” and the “Phase Separation” value (drug 15% w/w, polymer inherent viscosity 0.63 dL/g, Lactide/Glycolide 85/15) was “+”. For the same compound, the “Phase Separation” value (drug 15% w/w, polymer inherent viscosity 0.64 dL/g, Lactide/Glycolide 65/35) was “+”, the “Phase Separation” value (drug 15% w/w, polymer inherent viscosity 0.64 dL/g, Lactide/Glycolide 75/25) was “+” and the “Phase Separation” value (drug 15% w/w, polymer inherent viscosity 0.67 dL/g, Lactide/Glycolide 65/35) was “+”. The “Phase Separation” value (drug 15% w/w, polymer inherent viscosity 0.69 dL/g, Lactide/Glycolide 50/50 (first of two such lines, r12)) was “+”, the “Phase Separation” value (drug 15% w/w, polymer inherent viscosity 0.69 dL/g, Lactide/Glycolide 50/50 (second of two such lines, r13)) was “+” and the “Phase Separation” value (drug 15% w/w, polymer inherent viscosity 0.76-0.94 dL/g, Lactide/Glycolide 50/50) was “+”. The “Phase Separation” value (drug 15% w/w, polymer inherent viscosity 0.87 dL/g, Lactide/Glycolide 50/50) was “+”, the “Phase Separation” value (drug 15% w/w, polymer inherent viscosity 0.95-1.20 dL/g, Lactide/Glycolide 50/50) was “−” and the “Phase Separation” value (drug 15% w/w, polymer inherent viscosity 1.15 dL/g, Lactide/Glycolide 50/50) was “+”. For the same compound, the “Phase Separation” value (drug 15% w/w, polymer inherent viscosity 1.24 dL/g, Lactide/Glycolide 50/50) was “+”, the “Phase Separation” value (drug 20% w/w, polymer inherent viscosity 0.16 dL/g, Lactide/Glycolide 50/50) was “+” and the “Phase Separation” value (drug 20% w/w, polymer inherent viscosity 0.18 dL/g, Lactide/Glycolide 75/25) was “+”. For the same compound, the “Phase Separation” value (drug 20% w/w, polymer inherent viscosity 0.26-0.54 dL/g, Lactide/Glycolide 50/50, Ester Terminated) was “−”, the “Phase Separation” value (drug 20% w/w, polymer inherent viscosity 0.39 dL/g, Lactide/Glycolide 50/50) was “+” and the “Phase Separation” value (drug 20% w/w, polymer inherent viscosity 0.55-0.75 dL/g, Lactide/Glycolide 50/50, Carbohydrate end Group) was “−”. For the same compound, the “Phase Separation” value (drug 20% w/w, polymer inherent viscosity 0.63 dL/g, Lactide/Glycolide 85/15) was “+”, the “Phase Separation” value (drug 20% w/w, polymer inherent viscosity 0.64 dL/g, Lactide/Glycolide 65/35) was “+” and the “Phase Separation” value (drug 20% w/w, polymer inherent viscosity 0.64 dL/g, Lactide/Glycolide 75/25) was “+”. For the same compound, the “Phase Separation” value (drug 20% w/w, polymer inherent viscosity 0.67 dL/g, Lactide/Glycolide 65/35) was “+”, the “Phase Separation” value (drug 20% w/w, polymer inherent viscosity 0.69 dL/g, Lactide/Glycolide 50/50 (first of two such lines, r12)) was “+” and the “Phase Separation” value (drug 20% w/w, polymer inherent viscosity 0.69 dL/g, Lactide/Glycolide 50/50 (second of two such lines, r13)) was “+”. For the same compound, the “Phase Separation” value (drug 20% w/w, polymer inherent viscosity 0.76-0.94 dL/g, Lactide/Glycolide 50/50) was “+”, the “Phase Separation” value (drug 20% w/w, polymer inherent viscosity 0.87 dL/g, Lactide/Glycolide 50/50) was “+” and the “Phase Separation” value (drug 20% w/w, polymer inherent viscosity 0.95-1.20 dL/g, Lactide/Glycolide 50/50) was “+”. For the same compound, the “Phase Separation” value (drug 20% w/w, polymer inherent viscosity 1.15 dL/g, Lactide/Glycolide 50/50) was “+” and the “Phase Separation” value (drug 20% w/w, polymer inherent viscosity 1.24 dL/g, Lactide/Glycolide 50/50) was “+”.
